From patent US20140100290A1, “Method of treating a prostate condition” (priority 2012, published 2014) come the findings set out here.

Holding throughout (type): cell-based, Human
Test [1] relates to cytochrome c release in PC-3 cells. Kind of test: Western blot analysis of cytochrome c release in PC-3 cells. Conditions: 48 h. On the procedure: (§1) Cell Line and Culture Conditions • Human metastatic, androgen insensitive prostate cancer cells, PC-3, were obtained from ATCC (Manassas, Va., USA). Cells were grown in F-12K medium supplemented with 2 mM glutamine, 10% FBS, 100 U/mL penicillin, and 100 μg/mL streptomycin. PC-3 cells were maintained in a humidified atmosphere of 5% CO2 at 37° C. in T-75 flasks and were subcultured when confluent.
Western blotting is a widely used analytical technique for detection of specific proteins separated from one another according to their size by gel electrophoresis. […] Once detected, the target protein will be visualized as a band on a blotting membrane, X-ray film, or an imaging system.
Cytochrome c is a heme-containing component of the electron transport chain in the mitochondrial membrane. […] In order to further confirm that carvacrol induced apoptosis in these cells, the release of cytochrome c from mitochondria into cytosol was analyzed using Western blot analysis in carvacrol-treated cells. […]
After maintaining constant agitation at 4° C. for 30 minutes, lysates were collected in microcentrifuge tubes and centrifuged at 12,000 rpm at 4° C. for 20 minutes. […] Protein concentration was determined using the Pierce® BCA protein assay kit. […] Western blot images are representative of at least 3 independent experiments, while quantification data represent mean±S.E.M. of n≧3 experiments.
For orientation: In western blotting, separated proteins are transferred to a membrane and probed.

The test system of another test is PC-3 cells. Kind of test: Morphological analysis of PC-3 cells. The conditions noted are these: 10 μM and 1000 μM, 48 h. On the procedure:
as §1
These typical features of apoptosis were used to evaluate the mechanism of decreased cell proliferation by carvacrol in PC-3 cells.
In order to identify the morphological changes in PC-3 cells after treatment with carvacrol, 2×10^6 cells/well were seeded in flat-bottom, 6-well microtiter plates, allowed to grow for 24 h, then treated with 10 μM and 1000 μM of carvacrol, and incubated further for 48 h at 37° C. After incubation, cells were washed twice with PBS, and microscopic photographs of morphological changes of the cells were captured using a fluorescent microscope, Axiovert 200M (Carl Zeiss MicroImaging Inc, NY, USA). 1.15% EtOH was used as a solvent control.

The test system of test [2] is LNCaP cells. Put plainly: Phosphatidylserine externalization by fluorescence microscopy (PSVue 480) in LNCaP cells. The conditions noted are these: 10 μM and 1000 μM, 48 hours, dose-dependent. On the procedure: (§2) Human metastatic prostate cancer cells, LNCaP, were obtained from ATCC (Manassas, Va., USA). Cells were grown in RPMI-1640 medium supplemented with 2mM glutamine, 10% FBS, 100 U/mL penicillin, and 100 μg/mL streptomycin. LNCaP cells were maintained in a humidified atmosphere of 5% CO2 at 37° C. in T-75 flasks and were subcultured when confluent. Experiments were conducted using cells with passage numbers ranging from 5-20.
One of the earliest events to occur in apoptosis or programmed cell death is the externalization of phosphatidylserine (PS), a membrane phospholipid restricted to the inner leaflet of the lipid bilayer. Redistribution of PS from the inner leaflet to the outer leaflet occurs in cells undergoing apoptosis. The PSVue™ 480 reagent kit was used to perform the phosphatidylserine (PS) externalization assay. The principle behind this assay involves a strong binding of PSVue™ 480 (fluorescent probe) to the anionic PS residues exposed on the surface of the apoptotic cells by its Zn (II)-dipicolylamine (Zn-DPA) functionality, making it a useful apoptotic sensor.
To detect PS externalization, LNCaP cells were seeded as 0.5×10^6 cells/well in flat-bottom, 6-well microtiter plates. After 24 hours of incubation at 37° C., cells were treated with 10 μM and 1000 μM of carvacrol for 48 hours. […]

Test [3] concerns LNCaP cells. Put plainly: Morphological analysis of LNCaP cells. Conditions: 10 μM and 1000 μM, 48 hours, dose-dependent. How it is done:
as §2
Prominent features of morphological changes occurring in a cell, such as cell shrinkage, rounding of cells, membrane blebbing, and formation of apoptotic bodies indicate induction of apoptosis or programmed cell death.
In order to identify the morphological changes in LNCaP cells after treatment with carvacrol, 2×10^6 cells/well were seeded in flat-bottom, 6-well microtiter plates, allowed to grow for 24 hours, treated with 10 μM and 1000 μM of carvacrol, and incubated for a further 48 hours at 37° C. Post incubation, cells were washed twice with PBS, and microscopic photographs of morphological changes of the cells were captured using a fluorescent microscope, Axiovert 200M (Carl Zeiss MicroImaging Inc, NY, USA). 1.15% EtOH was used in solvent control.

Take `Cc1ccc(C(C)C)cc1O` [Carvacrol]: the “cytochrome c levels in cytosol (Western blot)” value in test [1] (10 μM, compared to solvent control) is reported as “Increase in cytochrome c levels in cytosol was observed”. In addition, the “cytochrome c levels (Western blot)” value in test [1] (2000 μM, compared to 10 μM carvacrol-treated cells) is recorded as “decrease in levels of cytochrome c”. For the same compound, the “morphological changes (features of apoptosis)” value in the test with PC-3 cells is “exhibited typical features of apoptosis like rounding of cells, membrane blebbing, and cell shrinkage”; with LNCaP cells [3], “typical features of apoptosis like rounding of cells, membrane blebbing, cell shrinkage and formation of apoptotic bodies were observed”. Further, the “externalization of phosphatidylserine residues (PSVue 480 positive cells)” value in the test on LNCaP cells [2] is listed as “showed externalization of phosphatidylserine residues”.
